Results published in publication PMC11819603, “Development of a reliable, sensitive, and convenient assay for the discovery of new eIF5A hypusination inhibitors” (PLOS ONE, 2025).
Read-outs that look alike come from different tables or passages of the source.

Tests used:
DHPS [1] = target: T1, DHPS (Homo sapiens, UniProt P49366); assay: Hyp'Assay: cell-free eIF5A hypusination in 96-well plates (recombinant eIF5A, DHPS, DOHH; anti-hypusine antibody Hpu24), substance present in the DHPS step; type: biochemical
T1 construct: host or cells: E. coli BL21 (DE3)
T1 sequence (P49366 1-369): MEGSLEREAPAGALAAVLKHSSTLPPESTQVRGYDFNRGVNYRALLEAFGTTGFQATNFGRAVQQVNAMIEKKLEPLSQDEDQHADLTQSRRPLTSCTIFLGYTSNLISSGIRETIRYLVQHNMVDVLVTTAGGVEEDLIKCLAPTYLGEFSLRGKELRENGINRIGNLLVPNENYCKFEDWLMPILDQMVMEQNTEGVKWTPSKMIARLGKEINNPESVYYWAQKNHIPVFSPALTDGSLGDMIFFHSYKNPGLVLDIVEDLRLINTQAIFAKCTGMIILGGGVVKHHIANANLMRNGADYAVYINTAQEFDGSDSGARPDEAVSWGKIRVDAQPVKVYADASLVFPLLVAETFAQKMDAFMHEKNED
Protocol: The principle of the Hyp’Assay (Fig 2A) is to perform eIF5A hypusination reaction in 96-well plates, allow eIF5A to adsorb to the plate, incubate with an anti-hypusine antibody and a secondary antibody conjugated to HRP and reveal hypusination using TMB as a substrate.
(§1) […] Then 10 μL containing 1 μg of DOHH with 10 μM Fe^2+ (H8FeN2O8S2^. 6H2O) were added. After 1 h proteins were analyzed by Western Blot using antibodies toward DHPS, DOHH, Hypusine, and eIF5A.
(§2) The cell-free reaction described in 4.4 is performed in triplicates in a 96-wells plate (MaxiSorp, ThermoFisher) in the presence of 3 μg of eIF5A, 2 μg of DHPS, and 2 μg of DOHH by well. The reaction product, hypusinated eIF5A, is adsorbed onto the plate overnight at 4°C. The plate is washed (100 μL/well) thrice with PBS-T (PBS– 0.05% Tween20), then saturated with 1% non-fat dry milk in PBS-T for 2 h at room temperature. The plate is washed thrice with PBS-T and incubated overnight at 4°C with the anti-hypusine antibody (1:2000 in saturation buffer, 50 μL/well). The next day and after 5 washes with PBS-T, HRP-coupled anti-rabbit secondary antibody diluted 1:5000 in saturation buffer (50 μL/well) is added for 2 h at room temperature.

DOHH = target: T2, DOHH (Homo sapiens, UniProt Q9BU89); assay: Hyp'Assay, substance added after the deoxyhypusination reaction (DOHH step); type: biochemical; details: control 100,0
T2 construct: pelB leader (N); host or cells: E. coli BL21 (DE3)
T2 sequence (Q9BU89 1-302): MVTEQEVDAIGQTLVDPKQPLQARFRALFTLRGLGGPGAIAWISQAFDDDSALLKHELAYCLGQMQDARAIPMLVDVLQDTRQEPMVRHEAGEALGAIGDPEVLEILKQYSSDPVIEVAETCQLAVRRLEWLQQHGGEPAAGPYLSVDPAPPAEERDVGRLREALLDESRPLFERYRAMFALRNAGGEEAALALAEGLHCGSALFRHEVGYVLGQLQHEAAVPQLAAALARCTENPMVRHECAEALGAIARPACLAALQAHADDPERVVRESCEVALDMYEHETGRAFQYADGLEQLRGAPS
Protocol: We then tested the ability of DOHH inhibitors to inhibit eIF5A hypusination using the Hyp’Assay. During the Hyp’Assay, DOHH inhibitors were added after the deoxyhypusination reaction.
To address this issue, we compared the ability of GC7 to inhibit DHPS or DOHH by adding GC7 during the first step of the Hyp’Assay; when DHPS mediates the deoxyhypusination reaction (Fig 2A), or only during the second step, when DOHH hydroxylate deoxyhypusinated eIF5A. […] When finding new hypusination inhibitors adding them during the first or the second step of the Hyp’Assay will allow us to determine if the inhibition affects DHPS or DOHH. Another way to discriminate between DHPS or DOHH inhibitors would be to use Hpu98, an antibody that recognized both hypusinated and deoxyhypusinated eIF5A, instead of Hpu24, which is specific for hypusinated eIF5A [18]. […] We performed a new Hyp’Assay by omitting DOHH in the reaction mix and using the Hpu98 antibody. First, we performed a dose response experiment with spermidine at pH: 8.0 and 9.0 (Fig 3E). […] We also tested the ability of GC7 (Fig 3F) and CPX or EDTA (Fig 3G) to inhibit DHPS.
as §1, §2

DHPS [2] = target: T1, DHPS; assay: Hyp'Assay without DOHH: deoxyhypusination of eIF5A revealed with Hpu98 antibody; type: biochemical
From the text: To address this issue, we compared the ability of GC7 to inhibit DHPS or DOHH by adding GC7 during the first step of the Hyp’Assay; when DHPS mediates the deoxyhypusination reaction (Fig 2A), or only during the second step, when DOHH hydroxylate deoxyhypusinated eIF5A. […] This confirms the specificity of GC7 towards DHPS. When finding new hypusination inhibitors adding them during the first or the second step of the Hyp’Assay will allow us to determine if the inhibition affects DHPS or DOHH. Another way to discriminate between DHPS or DOHH inhibitors would be to use Hpu98, an antibody that recognized both hypusinated and deoxyhypusinated eIF5A, instead of Hpu24, which is specific for hypusinated eIF5A [18]. […] We performed a new Hyp’Assay by omitting DOHH in the reaction mix and using the Hpu98 antibody. First, we performed a dose response experiment with spermidine at pH: 8.0 and 9.0 (Fig 3E). The Hyp’Assay allows the detection of deoxyhypusinated eIF5A in a spermidine-dependent manner. Under these conditions, deoxyhypusination was equally efficient at both pH tested. […] We also tested the ability of GC7 (Fig 3F) and CPX or EDTA (Fig 3G) to inhibit DHPS. […] This provided us with another method to distinguish between DHPS and DOHH inhibitors.
as §2

human DHPS = details: read-out: Km of human DHPS for spermidine, cited from earlier work

## NCCCCNCCCN [spermidine]
DHPS [1]
  EC50: 5 µM
DHPS [1]; substrate concentration 0,01 (mM)
  hypusination signal with the substance as substrate, Mean (quantification from Figure S3): 1,46
DHPS [1]; substrate concentration 0,1 (mM)
  hypusination signal with the substance as substrate, Mean (quantification from Figure S3): 31,22
DHPS [1]; substrate concentration 0,0001 (mM)
  hypusination signal with the substance as substrate, Mean (quantification from Figure S3): -0,19
DHPS [1]; substrate concentration 0,001 (mM)
  hypusination signal with the substance as substrate, Mean (quantification from Figure S3): -0,21
DHPS [1]; substrate concentration 1 (mM)
  hypusination signal with the substance as substrate, Mean (quantification from Figure S3): 68,32
DHPS [1]; substrate concentration 10 (mM)
  hypusination signal with the substance as substrate, Mean (quantification from Figure S3): 100,00
DHPS [1]; substrate concentration 100 (mM)
  hypusination signal with the substance as substrate, Mean (quantification from Figure S3): 86,96
DHPS [1]; substrate concentration 1000 (mM)
  hypusination signal with the substance as substrate, Mean (quantification from Figure S3): 66,59
DOHH; concentration 1 (no unit on page; Fig 3C dose-response 0 to 100 μM)
  hypusination signal, Mean (quantification from Figure 3C): 84,83
DOHH; concentration 10 (no unit on page; Fig 3C dose-response 0 to 100 μM)
  hypusination signal, Mean (quantification from Figure 3C): 82,59
DHPS [2]; pH: 8.0, spermidine 1 µM as substrate
  deoxyhypusination signal, Mean (quantification from Figure 3E): 0,00
DHPS [2]; pH: 8.0, spermidine 10 µM as substrate
  deoxyhypusination signal, Mean (quantification from Figure 3E): 50,47
DHPS [2]; pH: 8.0, spermidine 100 µM as substrate
  deoxyhypusination signal, Mean (quantification from Figure 3E): 87,29
DHPS [2]; pH: 8.0, spermidine 1000 µM as substrate
  deoxyhypusination signal, Mean (quantification from Figure 3E): 98,05
DHPS [2]; pH: 8.0, spermidine 10000 µM as substrate
  deoxyhypusination signal, Mean (quantification from Figure 3E): 100,00
DHPS [2]; pH: 9.0, spermidine 1 µM as substrate
  deoxyhypusination signal, Mean (quantification from Figure 3E): 0,00
DHPS [2]; pH: 9.0, spermidine 10 µM as substrate
  deoxyhypusination signal, Mean (quantification from Figure 3E): 51,14
DHPS [2]; pH: 9.0, spermidine 100 µM as substrate
  deoxyhypusination signal, Mean (quantification from Figure 3E): 85,89
Human DHPS; ref 23
  Km: 4 µM
Human DHPS; ref 24
  Km: 7.6 µM
